# Active and inactive are the calls of the source. The rule behind the calls is not given here.
# What was measured:
# [1] = target: High affinity nerve growth factor receptor (Homo sapiens) (UniProt P04629); assay: Inhibition of human TRKA assessed as enzyme residual activity at 100 nM by radiometric filter binding assay relative to control
# [2] = target: Serine/threonine-protein kinase TBK1 (Homo sapiens) (UniProt Q9UHD2); assay: Inhibition of human TBK1 assessed as enzyme residual activity at 100 nM by radiometric filter binding assay relative to control
# [3] = target: Serine/threonine-protein kinase D1 (Homo sapiens) (UniProt Q15139); assay: Inhibition of human PKD1 assessed as enzyme residual activity at 100 nM by radiometric filter binding assay relative to control
# [4] = target: Casein kinase I isoform delta (Homo sapiens) (UniProt P48730); assay: Inhibition of human CK1delta assessed as enzyme residual activity at 100 nM by radiometric filter binding assay relative to control
# [5] = target: Glycogen synthase kinase-3 beta (Homo sapiens) (UniProt P49841); assay: Inhibition of human GSK3beta assessed as enzyme residual activity at 100 nM by radiometric filter binding assay relative to control
# [6] = target: Serine/threonine-protein kinase PAK 4 (Homo sapiens) (UniProt O96013); assay: Inhibition of human PAK4 assessed as enzyme residual activity at 100 nM by radiometric filter binding assay relative to control
# [7] = target: Proto-oncogene tyrosine-protein kinase LCK (Mus musculus) (UniProt P06240); assay: Inhibition of mouse Lck assessed as enzyme residual activity at 100 nM by radiometric filter binding assay relative to control
# [8] = target: Interleukin-1 receptor-associated kinase 4 (Homo sapiens) (UniProt Q9NWZ3); assay: Inhibition of human IRAK4 assessed as enzyme residual activity at 100 nM by radiometric filter binding assay relative to control
# [9] = target: Serine/threonine-protein kinase Sgk1 (Homo sapiens) (UniProt O00141); assay: Inhibition of human SGK1 assessed as enzyme residual activity at 100 nM by radiometric filter binding assay relative to control
# [10] = target: Serine/threonine-protein kinase PLK1 (Homo sapiens) (UniProt P53350); assay: Inhibition of human PLK1 assessed as enzyme residual activity at 100 nM by radiometric filter binding assay relative to control
# [11] = target: Insulin-like growth factor 1 receptor (Homo sapiens) (UniProt P08069); assay: Inhibition of human IGF1R assessed as enzyme residual activity at 100 nM by radiometric filter binding assay relative to control
# [12] = target: Calcium/calmodulin-dependent protein kinase kinase 2 (Homo sapiens) (UniProt Q96RR4); assay: Inhibition of human CaMKKbeta assessed as enzyme residual activity at 100 nM by radiometric filter binding assay relative to control
# [13] = target: Tyrosine-protein kinase BTK (Homo sapiens) (UniProt Q06187); assay: Inhibition of human BTK assessed as enzyme residual activity at 100 nM by radiometric filter binding assay relative to control
# [14] = target: Protein kinase C alpha type (Homo sapiens) (UniProt P17252); assay: Inhibition of human PKCalpha assessed as enzyme residual activity at 100 nM by radiometric filter binding assay relative to control
# [15] = target: T1, Casein kinase II subunit alpha (Homo sapiens, UniProt P68400); assay: Inhibition of human CK2alpha assessed as enzyme residual activity at 100 nM by radiometric filter binding assay relative to control
# Target sequence in this assay (P68400 whole entry, looked up): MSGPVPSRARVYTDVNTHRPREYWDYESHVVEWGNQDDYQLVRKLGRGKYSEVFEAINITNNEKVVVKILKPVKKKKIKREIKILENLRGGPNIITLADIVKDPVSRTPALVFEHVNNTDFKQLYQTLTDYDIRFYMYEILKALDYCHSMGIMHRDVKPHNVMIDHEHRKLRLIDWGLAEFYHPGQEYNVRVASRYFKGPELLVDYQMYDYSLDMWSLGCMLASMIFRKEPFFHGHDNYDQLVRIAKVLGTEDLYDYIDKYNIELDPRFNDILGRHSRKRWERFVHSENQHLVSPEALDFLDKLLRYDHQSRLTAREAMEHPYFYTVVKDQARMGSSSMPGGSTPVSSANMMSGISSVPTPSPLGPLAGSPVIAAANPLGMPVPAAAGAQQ
# [16] = target: Tyrosine-protein kinase JAK3 (Homo sapiens) (UniProt P52333); assay: Inhibition of human JAK3 assessed as enzyme residual activity at 100 nM by radiometric filter binding assay relative to control
# [17] = target: Eukaryotic elongation factor 2 kinase (Homo sapiens) (UniProt O00418); assay: Inhibition of human EF2K assessed as enzyme residual activity at 100 nM by radiometric filter binding assay relative to control
# [18] = target: Serine/threonine-protein kinase Chk2 (Homo sapiens) (UniProt O96017); assay: Inhibition of human CHK2 assessed as enzyme residual activity at 100 nM by radiometric filter binding assay relative to control
# [19] = target: T1, Casein kinase II subunit alpha; assay: Displacement of ARC-1504/ARC-1513-5O from CK2alpha (unknown origin) (1 to 335 residues) after 15 to 60 mins by luminescence assay
# Target sequence in this assay (P68400 whole entry): as the sequence (P68400 whole entry, looked up) above
# [20] = target: Receptor tyrosine-protein kinase erbB-4 (Homo sapiens) (UniProt Q15303); assay: Inhibition of human HER4 assessed as enzyme residual activity at 100 nM by radiometric filter binding assay relative to control
# [21] = target: Homeodomain-interacting protein kinase 2 (Homo sapiens) (UniProt Q9H2X6); assay: Inhibition of human HIPK2 assessed as enzyme residual activity at 100 nM by radiometric filter binding assay relative to control
# [22] = target: T1, Casein kinase II subunit alpha; assay: Displacement of ARC-1504/ARC-1513-5O from CK2alpha (unknown origin) (1 to 335 residues) assessed as photoluminescence lifetime using non-deoxygenated solution after 15 to 60 mins by luminescence assay
# Target sequence in this assay (P68400 whole entry, looked up): as above
# [23] = target: Dual specificity tyrosine-phosphorylation-regulated kinase 1A (Homo sapiens) (UniProt Q13627); assay: Inhibition of human DYRK1alpha assessed as enzyme residual activity at 100 nM by radiometric filter binding assay relative to control
# [24] = target: Rho-associated protein kinase 2 (Rattus norvegicus) (UniProt Q62868); assay: Inhibition of rat ROCK2 assessed as enzyme residual activity at 100 nM by radiometric filter binding assay relative to control
# [25] = target: Myosin light chain kinase, smooth muscle (Homo sapiens) (UniProt Q15746); assay: Inhibition of human SmMLCK assessed as enzyme residual activity at 100 nM by radiometric filter binding assay relative to control
# [26] = target: T1, Casein kinase II subunit alpha; assay: Displacement of 5-TAMRA-labeled ARC-1530 from CK2alpha (unknown origin) (1 to 335 residues) after 15 to 60 mins by luminescence assay
# Target sequence in this assay (P68400 whole entry, looked up): as above
# [27] = target: Mitogen-activated protein kinase 14 (Homo sapiens) (UniProt Q16539); assay: Inhibition of human p38alpha MAPK assessed as enzyme residual activity at 100 nM by radiometric filter binding assay relative to control
# [28] = target: AMP-activated protein kinase, AMPK (Homo sapiens) (UniProt P54646+O43741+P54619+Q9UGJ0+Q9Y478+Q13131+Q9UGI9); assay: Inhibition of human AMPK assessed as enzyme residual activity at 100 nM by radiometric filter binding assay relative to control; format: protein-complex assay
# [29] = target: MAP/microtubule affinity-regulating kinase 3 (Homo sapiens) (UniProt P27448); assay: Inhibition of human MARK3 assessed as enzyme residual activity at 100 nM by radiometric filter binding assay relative to control
# [30] = target: Ephrin type-A receptor 2 (Homo sapiens) (UniProt P29317); assay: Inhibition of human EPHA2 assessed as enzyme residual activity at 100 nM by radiometric filter binding assay relative to control
# [31] = target: Serine/threonine-protein kinase Nek6 (Homo sapiens) (UniProt Q9HC98); assay: Inhibition of human NEK6 assessed as enzyme residual activity at 100 nM by radiometric filter binding assay relative to control
# [32] = target: Ribosomal protein S6 kinase beta-1 (Homo sapiens) (UniProt P23443); assay: Inhibition of human S6K1 assessed as enzyme residual activity at 100 nM by radiometric filter binding assay relative to control
# Sequence of Ribosomal protein S6 kinase beta-1 (Homo sapiens) (P23443 whole entry, looked up): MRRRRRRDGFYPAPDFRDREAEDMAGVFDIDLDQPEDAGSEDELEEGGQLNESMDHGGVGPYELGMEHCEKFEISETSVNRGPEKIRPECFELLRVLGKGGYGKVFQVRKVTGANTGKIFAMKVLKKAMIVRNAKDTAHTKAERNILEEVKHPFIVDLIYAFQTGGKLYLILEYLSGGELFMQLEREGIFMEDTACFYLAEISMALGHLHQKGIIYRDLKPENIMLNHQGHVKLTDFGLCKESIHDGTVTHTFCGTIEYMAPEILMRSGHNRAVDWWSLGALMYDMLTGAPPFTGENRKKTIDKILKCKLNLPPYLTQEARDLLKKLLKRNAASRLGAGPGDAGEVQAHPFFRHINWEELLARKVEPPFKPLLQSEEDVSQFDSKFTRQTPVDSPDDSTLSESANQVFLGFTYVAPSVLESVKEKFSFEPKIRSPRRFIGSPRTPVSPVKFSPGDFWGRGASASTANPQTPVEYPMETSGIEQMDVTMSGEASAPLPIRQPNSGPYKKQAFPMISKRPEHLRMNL
# Sequence of Eukaryotic elongation factor 2 kinase (Homo sapiens) (O00418 whole entry): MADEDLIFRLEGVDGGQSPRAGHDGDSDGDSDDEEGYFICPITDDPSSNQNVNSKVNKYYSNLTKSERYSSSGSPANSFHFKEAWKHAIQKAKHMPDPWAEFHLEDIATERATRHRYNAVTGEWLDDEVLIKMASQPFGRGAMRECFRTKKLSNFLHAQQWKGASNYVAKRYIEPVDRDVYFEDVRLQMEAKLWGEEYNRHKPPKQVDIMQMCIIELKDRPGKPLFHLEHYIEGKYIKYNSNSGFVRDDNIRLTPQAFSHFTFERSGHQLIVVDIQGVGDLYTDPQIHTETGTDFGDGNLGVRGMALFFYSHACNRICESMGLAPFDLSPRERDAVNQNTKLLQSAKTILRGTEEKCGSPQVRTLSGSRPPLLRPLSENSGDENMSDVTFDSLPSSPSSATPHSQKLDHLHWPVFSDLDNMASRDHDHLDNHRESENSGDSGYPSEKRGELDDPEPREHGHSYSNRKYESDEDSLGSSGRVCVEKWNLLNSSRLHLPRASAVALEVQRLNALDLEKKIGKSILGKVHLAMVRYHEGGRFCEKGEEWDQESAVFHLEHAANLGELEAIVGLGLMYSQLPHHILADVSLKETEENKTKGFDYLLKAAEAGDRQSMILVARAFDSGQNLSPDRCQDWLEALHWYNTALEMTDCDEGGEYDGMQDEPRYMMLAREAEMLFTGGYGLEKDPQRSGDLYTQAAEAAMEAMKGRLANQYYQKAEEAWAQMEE
# Sequence of Serine/threonine-protein kinase D1 (Homo sapiens) (Q15139 whole entry, looked up, canonical isoform): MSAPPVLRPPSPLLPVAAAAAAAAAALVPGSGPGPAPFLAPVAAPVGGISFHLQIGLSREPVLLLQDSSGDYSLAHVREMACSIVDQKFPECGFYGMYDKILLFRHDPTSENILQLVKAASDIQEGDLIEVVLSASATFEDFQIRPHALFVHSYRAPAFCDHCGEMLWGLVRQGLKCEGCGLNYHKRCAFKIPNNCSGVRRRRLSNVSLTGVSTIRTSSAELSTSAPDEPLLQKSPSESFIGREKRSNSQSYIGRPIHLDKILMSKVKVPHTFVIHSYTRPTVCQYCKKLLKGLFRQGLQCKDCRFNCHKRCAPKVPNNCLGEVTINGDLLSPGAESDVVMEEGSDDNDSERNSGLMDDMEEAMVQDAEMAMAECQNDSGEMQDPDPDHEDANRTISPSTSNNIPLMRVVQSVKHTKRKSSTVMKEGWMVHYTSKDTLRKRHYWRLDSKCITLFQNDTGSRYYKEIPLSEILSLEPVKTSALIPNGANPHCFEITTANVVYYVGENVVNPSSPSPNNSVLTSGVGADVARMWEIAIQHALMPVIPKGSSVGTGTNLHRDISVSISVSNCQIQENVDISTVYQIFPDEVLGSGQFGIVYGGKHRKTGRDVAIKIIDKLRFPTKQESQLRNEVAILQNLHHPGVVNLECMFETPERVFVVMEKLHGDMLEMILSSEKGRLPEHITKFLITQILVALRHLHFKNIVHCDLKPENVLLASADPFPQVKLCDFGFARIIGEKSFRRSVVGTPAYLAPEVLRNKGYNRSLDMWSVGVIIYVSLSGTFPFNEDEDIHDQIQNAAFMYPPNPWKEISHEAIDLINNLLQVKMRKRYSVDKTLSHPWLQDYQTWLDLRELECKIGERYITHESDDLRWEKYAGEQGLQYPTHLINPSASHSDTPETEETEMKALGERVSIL
# Sequence of Serine/threonine-protein kinase Chk2 (Homo sapiens) (O96017 whole entry, the tested form may be a part): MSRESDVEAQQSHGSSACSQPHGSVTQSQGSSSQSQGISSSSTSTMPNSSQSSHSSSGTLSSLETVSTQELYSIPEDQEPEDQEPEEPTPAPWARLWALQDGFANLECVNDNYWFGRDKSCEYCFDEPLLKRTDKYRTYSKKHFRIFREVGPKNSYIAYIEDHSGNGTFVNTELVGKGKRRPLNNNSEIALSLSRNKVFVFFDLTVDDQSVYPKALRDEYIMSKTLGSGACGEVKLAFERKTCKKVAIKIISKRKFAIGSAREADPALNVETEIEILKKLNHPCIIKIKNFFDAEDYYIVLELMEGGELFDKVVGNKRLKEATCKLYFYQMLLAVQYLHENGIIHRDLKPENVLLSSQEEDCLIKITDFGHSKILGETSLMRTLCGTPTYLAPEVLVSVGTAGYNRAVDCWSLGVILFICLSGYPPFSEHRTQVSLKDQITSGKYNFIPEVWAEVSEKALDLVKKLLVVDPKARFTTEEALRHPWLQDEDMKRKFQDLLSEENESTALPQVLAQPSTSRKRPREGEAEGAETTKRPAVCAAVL
# Sequence of Glycogen synthase kinase-3 beta (Homo sapiens) (P49841 whole entry, looked up): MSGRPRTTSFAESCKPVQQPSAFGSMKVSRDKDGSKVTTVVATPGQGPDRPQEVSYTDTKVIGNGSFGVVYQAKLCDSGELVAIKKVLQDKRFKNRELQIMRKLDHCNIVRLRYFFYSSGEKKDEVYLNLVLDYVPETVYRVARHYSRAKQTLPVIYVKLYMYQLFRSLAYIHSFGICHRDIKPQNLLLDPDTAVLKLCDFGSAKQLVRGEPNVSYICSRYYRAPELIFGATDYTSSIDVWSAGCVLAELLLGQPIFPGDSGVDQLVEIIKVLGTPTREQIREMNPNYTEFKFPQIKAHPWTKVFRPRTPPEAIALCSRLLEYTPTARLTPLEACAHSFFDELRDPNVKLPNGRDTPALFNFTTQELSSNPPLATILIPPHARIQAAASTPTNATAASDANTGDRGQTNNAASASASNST
# Sequence of Serine/threonine-protein kinase Sgk1 (Homo sapiens) (O00141 whole entry): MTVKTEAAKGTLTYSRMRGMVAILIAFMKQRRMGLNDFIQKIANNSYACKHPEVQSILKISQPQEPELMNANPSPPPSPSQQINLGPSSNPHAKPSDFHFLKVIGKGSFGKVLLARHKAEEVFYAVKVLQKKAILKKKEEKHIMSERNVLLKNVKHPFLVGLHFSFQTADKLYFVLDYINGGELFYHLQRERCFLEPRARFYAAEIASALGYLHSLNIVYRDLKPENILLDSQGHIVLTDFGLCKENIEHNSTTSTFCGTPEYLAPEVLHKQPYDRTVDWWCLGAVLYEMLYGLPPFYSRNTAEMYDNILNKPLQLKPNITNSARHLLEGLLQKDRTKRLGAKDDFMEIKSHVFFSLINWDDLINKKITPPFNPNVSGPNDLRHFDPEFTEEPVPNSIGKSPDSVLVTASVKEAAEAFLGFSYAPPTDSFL
# Sequence of Serine/threonine-protein kinase PAK 4 (Homo sapiens) (O96013 whole entry, looked up): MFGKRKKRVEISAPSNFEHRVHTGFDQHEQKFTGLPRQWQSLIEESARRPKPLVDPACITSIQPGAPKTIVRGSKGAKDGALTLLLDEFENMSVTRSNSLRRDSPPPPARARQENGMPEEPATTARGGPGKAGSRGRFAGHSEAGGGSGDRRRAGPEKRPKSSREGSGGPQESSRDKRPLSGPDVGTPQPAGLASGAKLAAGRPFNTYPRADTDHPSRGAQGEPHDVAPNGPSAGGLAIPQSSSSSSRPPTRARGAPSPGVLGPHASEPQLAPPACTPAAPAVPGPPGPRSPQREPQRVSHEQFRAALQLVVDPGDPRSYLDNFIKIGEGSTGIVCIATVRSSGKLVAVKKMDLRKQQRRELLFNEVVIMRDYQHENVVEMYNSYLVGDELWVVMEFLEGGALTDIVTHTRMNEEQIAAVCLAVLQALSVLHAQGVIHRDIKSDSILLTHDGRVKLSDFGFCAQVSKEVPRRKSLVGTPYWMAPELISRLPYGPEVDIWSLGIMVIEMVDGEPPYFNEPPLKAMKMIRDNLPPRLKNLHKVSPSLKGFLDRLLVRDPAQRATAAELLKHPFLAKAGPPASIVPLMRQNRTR
compound,measurement,setting,value
NCCCC[C@@H](NC(=O)[C@@H](CC(=O)O)NC(=O)[C@@H](CC(=O)O)NC(=O)[C@@H](CC(=O)O)NC(=O)[C@@H](CC(=O)O)NC(=O)[C@@H](CC(=O)O)NC(=O)[C@@H](CC(=O)O)NC(=O)CCCCCNC(=O)CCC(=O)Nc1ncc(-c2ccc(C(=O)O)cc2)s1)C(=O)O,Activity,[1],88%
same,Activity,[2],78%
same,Activity,[3],117%
same,Activity,[4],107%
same,Activity,[5],19%
same,Activity,[6],101%
same,Activity,[7],101%
same,Activity,[8],102%
same,Activity,[9],97%
same,Activity,[10],83%
same,Activity,[11],143%
same,Activity,[12],120%
same,Activity,[13],99%
same,Activity,[14],95%
same,Activity,[15],1.9%
same,Activity,[16],85%
same,Activity,[17],106%
same,Activity,[18],96%
same,Kd,[19],580 pM
same,Activity,[20],113%
same,Activity,[21],23%
same,Time,[22],82 microsec
same,Activity,[23],11.5%
same,Activity,[24],96.5%
same,Activity,[25],68%
same,Activity,[26],Active
same,Activity,[27],102%
same,Activity,[28],69%
same,Activity,[29],99%
same,Activity,[30],107%
same,Activity,[31],103%
same,Activity,[32],104%
